For data set [1], the target named is T1, human amylin receptor (amylin 3(a) receptor: human calcitonin receptor + RAMP-3) (Homo sapiens, UniProt O60896+P30988).
T1 construct: expressed in transfected cells; host or cells: BHK570
T1 sequence (P30988 25-474): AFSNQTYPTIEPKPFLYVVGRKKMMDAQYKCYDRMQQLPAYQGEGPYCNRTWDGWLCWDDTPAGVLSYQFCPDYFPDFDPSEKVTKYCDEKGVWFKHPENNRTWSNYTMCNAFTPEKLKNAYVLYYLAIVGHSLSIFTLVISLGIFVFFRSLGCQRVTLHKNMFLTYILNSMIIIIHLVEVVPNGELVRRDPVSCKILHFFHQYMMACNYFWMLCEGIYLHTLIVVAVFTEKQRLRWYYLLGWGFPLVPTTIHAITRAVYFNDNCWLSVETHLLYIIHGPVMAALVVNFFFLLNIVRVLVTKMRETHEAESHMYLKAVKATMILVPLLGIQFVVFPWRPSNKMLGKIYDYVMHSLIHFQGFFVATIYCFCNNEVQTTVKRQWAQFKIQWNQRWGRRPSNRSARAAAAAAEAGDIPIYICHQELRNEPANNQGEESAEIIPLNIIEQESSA
T1 sequence (O60896 24-148 partner): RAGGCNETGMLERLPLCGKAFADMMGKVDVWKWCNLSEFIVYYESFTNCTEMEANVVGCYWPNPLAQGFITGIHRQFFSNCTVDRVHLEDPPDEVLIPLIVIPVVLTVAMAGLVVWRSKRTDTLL
The data set is described as follows: Assay (II)a functional CRE-luciferase assay, human amylin receptor. The format is cell-based. As to conditions: Table 2; BHK amylin 3(a)-receptor/CRE-luc cells.

A short description of data set [2]: Assay (III) ThT fibrillation assay for physical stability. The format is physicochemical. In a few lines:
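Freshly prepared formulations, pH-adjusted, with 1 μM ThT; four or eight replicates incubated at 37 °C under 960 rpm orbital shaking. Fluorescence (ex 444/em 485 nm) read every 20 min; […]. Peptide concentration measured by RP-HPLC before and after the run.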

The nature of data set [3]: Assay (IV) determination of solubility. The format is physicochemical. In a few lines:
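Stock ~500 nmol/ml in water; 1:1 with 100 mM buffer, pH 3.0–8.0 (glycylglycine ≤5.0, bistrispropane ≥6.0); 18 h RT; spin; HPLC quantitation of soluble polypeptide.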

The target of data set [4] is T2, human calcitonin receptor (Homo sapiens, UniProt P30988).
T2 construct: expressed in transfected cells; host or cells: BHK570
T2 sequence (P30988 25-474): T1 sequence (P30988 25-474)
Briefly: Assay (II)a functional CRE-luciferase assay, human calcitonin receptor. The format is cell-based. As to conditions: Table 7; human calcitonin (CTa) receptor.

The mark [5] stands for this setting: bistrispropane buffer, pH 6, pH 6.0, read-out: Solubility pH 6.0.
Where [6] appears, read: bistrispropane buffer, pH 6.5, pH 6.5, read-out: Solubility pH 6.5.
The mark [7] stands for this setting: bistrispropane buffer, pH 7, pH 7.0, read-out: Solubility pH 7.0.
Setting [8] is: bistrispropane buffer, pH 7.5, pH 7.5, read-out: Solubility pH 7.5.
[9] abbreviates: bistrispropane buffer, pH 8, pH 8.0, read-out: Solubility pH 8.0.
Setting [10] is: glycylglycine buffer, pH 3, pH 3.0, read-out: Solubility pH 3.0.
[11] abbreviates: glycylglycine buffer, pH 4, pH 4.0, 18 hours at room temperature, Table 2, read-out: Solubility pH 4.0.
[12] abbreviates: glycylglycine buffer, pH 4, pH 4.0, read-out: Solubility pH 4.0.
The mark [13] stands for this setting: glycylglycine buffer, pH 5, pH 5.0, read-out: Solubility pH 5.0.
Where [14] appears, read: bistrispropane buffer, pH 7, pH 7.0, 18 hours at room temperature, Table 3, read-out: Solubility pH 7.0.

Structures are written as SMILES. In brackets after ≈: the same amount, converted by molar mass. Like-named read-outs stand apart in the source and are kept apart here. Starred links: 1 amine or outer side, 2 acyl side, 3 side chain; linkers in the order of their positions; H or OH if unused. Positions of bridges follow the written chain, without caps; N, C: chain ends. Residues, ends and D or L forms follow the SMILES beside them. Groups on a side chain read outwards from the residue. *: point of attachment. C20 diacid = O=C(O)CCCCCCCCCCCCCCCCCCC(=O)*; C18 diacid = O=C(O)CCCCCCCCCCCCCCCCC(=O)*; γGlu = O=C(O)[C@H](CCC(=O)[*:2])N[*:1]; AEEA = NCCOCCOCC(=O)O Where only a bound is given, the exact number is not on record here.

What is called EC50 is the concentration at which the effect is half-maximal. A word on the solubility: it is the dissolved amount per volume that the medium holds. On to `CC[C@H](C)[C@H](NC(=O)[C@@H]1CCCN1C(=O)CNC(=O)[C@H](Cc1ccccc1)NC(=O)[C@H](CC(N)=O)NC(=O)[C@H](CC(N)=O)NC(=O)[C@H](CO)NC(=O)[C@H](CO)NC(=O)[C@H](Cc1c[nH]cn1)NC(=O)[C@H](Cc1c[nH]cn1)NC(=O)[C@H](CC(C)C)NC(=O)[C@H](Cc1ccccc1)NC(=O)[C@H](CCC(=O)O)NC(=O)[C@H](C)NC(=O)[C@H](CC(C)C)NC(=O)[C@H](CCCNC(=N)N)NC(=O)[C@H](CCC(N)=O)NC(=O)[C@@H](NC(=O)[C@H](C)NC(=O)[C@@H]1CSSC[C@H](NC(=O)[C@H](CCCCN)NC(=O)[C@H](Cc2c[nH]cn2)NC(=O)CC[C@H](NC(=O)CCCCCCCCCCCCCCCCC(=O)O)C(=O)O)C(=O)N[C@@H](CC(N)=O)C(=O)N[C@@H]([C@@H](C)O)C(=O)N[C@@H](C)C(=O)N[C@@H]([C@@H](C)O)C(=O)N1)[C@@H](C)O)C(=O)N[C@@H](CC(C)C)C(=O)N1CCC[C@H]1C(=O)N1CCC[C@H]1C(=O)N[C@H](C(=O)N[C@@H](CC(N)=O)C(=O)N[C@H](C(=O)NCC(=O)N[C@@H](CO)C(=O)N[C@@H](Cc1c[nH]cn1)C(=O)N[C@H](C(=O)N[C@@H](Cc1ccc(O)cc1)C(N)=O)[C@@H](C)O)C(C)C)[C@@H](C)O` [Example 70, N-alpha-[(S)-4-Carboxy-4-(17-carboxyheptadecanoylamino)butyryl]-His-[Glu14,His17,His35]-pramlintide] ({C18 diacid-γGlu}-HKCNTATCATQRLAEFLHHSSNNFGPILPPTNVGSHTY-NH2; disulfide 3-8 (inferred); C-terminus assumed), for which the figures for the EC50 in data set [1] and in data set [4] were 0.0585 nM and 0.099 nM, respectively. Moreover, the “ThT pH 4.0 lag time” value in data set [2] (ThT fibrillation assay) is recorded as greater than 45 h. For the same compound, the “ThT pH 4.0 lag time (h)” value in data set [2] (ThT fibrillation assay) is on record as greater than 45 h. In addition, the solubility at 18 h in data set [3] (setting [5]) was greater than 200 µM; in data set [3] (setting [6]), 69 µM (≈ 317 µg/mL); in data set [3] (setting [7]), 32 µM (≈ 147 µg/mL); in data set [3] (setting [8]), 52 µM (≈ 239 µg/mL); in data set [3] (setting [9]) it was 89 µM (≈ 408 µg/mL); in data set [3] (setting [10]), greater than 200 µM. The solubility at 18 h in data set [3] (setting [11]), in data set [3] (setting [12]) and in data set [3] (setting [13]) was greater than 200 µM throughout.
Consider `CC[C@H](C)[C@H](NC(=O)[C@H](CCCCNC(=O)COCCOCCNC(=O)COCCOCCNC(=O)CC[C@H](NC(=O)CCCCCCCCCCCCCCCCC(=O)O)C(=O)O)NC(=O)CNC(=O)[C@H](Cc1ccccc1)NC(=O)[C@H](CC(N)=O)NC(=O)[C@H](CO)NC(=O)[C@H](CO)NC(=O)[C@H](CO)NC(=O)[C@H](Cc1c[nH]cn1)NC(=O)[C@@H](NC(=O)[C@H](CC(C)C)NC(=O)[C@H](Cc1ccccc1)NC(=O)[C@H](CCC(=O)O)NC(=O)[C@H](C)NC(=O)[C@H](CC(C)C)NC(=O)[C@H](CCCNC(=N)N)NC(=O)[C@H](CCC(N)=O)NC(=O)[C@@H](NC(=O)[C@H](C)NC(=O)[C@@H]1CSSC[C@H](NC(=O)[C@@H](N)CCCCN)C(=O)N[C@@H](CC(N)=O)C(=O)N[C@@H]([C@@H](C)O)C(=O)N[C@@H](C)C(=O)N[C@@H]([C@@H](C)O)C(=O)N1)[C@@H](C)O)C(C)C)C(=O)N[C@@H](CC(C)C)C(=O)N1CCC[C@H]1C(=O)N1CCC[C@H]1C(=O)N[C@H](C(=O)N[C@@H](CC(N)=O)C(=O)N[C@H](C(=O)NCC(=O)N[C@@H](CO)C(=O)N[C@@H](CC(N)=O)C(=O)N[C@H](C(=O)N[C@@H](Cc1ccc(O)cc1)C(N)=O)[C@@H](C)O)C(C)C)[C@@H](C)O` [Example 72, N-epsilon25-[2-(2-{2-[2-(2-{2-[(S)-4-Carboxy-4-(17-carboxyheptadecanoylamino)butyrylamino]ethoxy}ethoxy)acetylamino]ethoxy}ethoxy)acetyl]-[Glu14,Ser21,Lys25]-pramlintide] (H-KCNTATCATQRLAEFLVHSSSNFGK([AEEA-AEEA-γGlu-C18 diacid])ILPPTNVGSNTY-NH2; disulfide 2-7 (inferred); N-terminus assumed), for which the values for the EC50 in data set [1] and in data set [4] were 0.089 nM and 0.101 nM, respectively. Besides, the “ThT pH 4.0 lag time (h)” value in data set [2] (ThT fibrillation assay) was determined as 10.3 h. Moreover, the solubility at 18 h in data set [3] (setting [5]) is 168 µM (≈ 787 µg/mL); in data set [3] (setting [6]) it was 130 µM (≈ 609 µg/mL); in data set [3] (setting [14]) it was 126 µM (≈ 590 µg/mL); in data set [3] (setting [7]), 126 µM (≈ 590 µg/mL); in data set [3] (setting [8]) it was 165 µM (≈ 773 µg/mL); in data set [3] (setting [9]) it was greater than 200 µM. Also, the solubility at 18 h in data set [3] (setting [10]), in data set [3] (setting [11]), in data set [3] (setting [12]) and in data set [3] (setting [13]) was greater than 200 µM each time.
As for `CC[C@H](C)[C@H](NC(=O)[C@@H]1CCCN1C(=O)CNC(=O)[C@H](Cc1ccccc1)NC(=O)[C@H](CC(N)=O)NC(=O)[C@H](CC(N)=O)NC(=O)[C@H](CO)NC(=O)[C@H](CO)NC(=O)[C@H](Cc1c[nH]cn1)NC(=O)[C@H](Cc1c[nH]cn1)NC(=O)[C@H](CC(C)C)NC(=O)[C@H](Cc1ccccc1)NC(=O)[C@H](CCC(=O)O)NC(=O)[C@H](C)NC(=O)[C@H](CC(C)C)NC(=O)[C@H](CCCNC(=N)N)NC(=O)[C@H](CCC(N)=O)NC(=O)[C@@H](NC(=O)[C@H](C)NC(=O)[C@@H]1CSSC[C@H](NC(=O)CC[C@H](NC(=O)CCCCCCCCCCCCCCCCCCC(=O)O)C(=O)O)C(=O)N[C@@H](CC(N)=O)C(=O)N[C@@H]([C@@H](C)O)C(=O)N[C@@H](C)C(=O)N[C@@H]([C@@H](C)O)C(=O)N1)[C@@H](C)O)C(=O)N[C@@H](CC(C)C)C(=O)N1CCC[C@H]1C(=O)N1CCC[C@H]1C(=O)N[C@H](C(=O)N[C@@H](CC(N)=O)C(=O)N[C@H](C(=O)NCC(=O)N[C@@H](CO)C(=O)N[C@@H](Cc1c[nH]cn1)C(=O)N[C@H](C(=O)N[C@@H](Cc1ccc(O)cc1)C(N)=O)[C@@H](C)O)C(C)C)[C@@H](C)O` [Example 75, N-alpha-[(S)-4-Carboxy-4-(19-carboxynonadecanoylamino)butyryl]-[des1,Glu14,His17,His35]-pramlintide] ({C20 diacid-γGlu}-CNTATCATQRLAEFLHHSSNNFGPILPPTNVGSHTY-NH2; disulfide 1-6 (inferred)), the EC50 in data set [1] was 0.365 nM; in data set [4], 0.286 nM. For the same compound, the “ThT pH 4.0 lag time” value in data set [2] (Table 8) and in data set [2] (ThT fibrillation assay) was 28 h each time. Moreover, the “ThT pH 4.0 lag time (h)” value in data set [2] (ThT fibrillation assay) was 28 h. Besides, the solubility at 18 h in data set [3] (setting [5]) is greater than 200 µM; in data set [3] (setting [6]) it was 193 µM (≈ 840 µg/mL); in data set [3] (setting [14]) it was greater than 200 µM; in data set [3] (bistrispropane buffer, pH 7, pH 7.0, Table 8, read-out: Solubility pH 7.0) it was greater than 200 µM; in data set [3] (setting [7]), greater than 200 µM; in data set [3] (setting [8]), greater than 200 µM. Moreover, the solubility at 18 h in data set [3] (setting [9]), in data set [3] (setting [10]), in data set [3] (setting [11]), in data set [3] (setting [12]) and in data set [3] (setting [13]) was greater than 200 µM throughout.
